The source made the active and inactive calls. The calls are words filed in the database; no cut-off is given here.
Columns and labels:
LX-2 = test: Antifibrotic activity in TGF-beta1 induced human LX2 cells assessed as downregulation of COL1A1 protein expression incubated for 24 hrs by western blotting analysis; format: functional, cell-based
Mus musculus [1] = test: Antifibrotic activity in CDAHFD induced non-alcoholic steatohepatitis C57BL/6N mouse model assessed as downregulation of TIMP1 protein expression at 200 mg/kg,po qd administration for 4 weeks by Western blotting analysis; format: functional, organism-based
Mus musculus [2] = test: Hepatoprotective activity in CDAHFD induced C57BL/6N mouse liver injury model assessed as increase in HDL level at 200 mg/kg,po qd administration for 4 weeks; format: functional, organism-based
Rattus norvegicus [3] = test: Hepatoprotective activity in bile duct ligation induced Sprague-Dawley rat liver injury model assessed as decrease in ALT level at 200 mg/kg,po qd administration for 14 days; format: functional, organism-based; details: time 14.0 day
Mus musculus [4] = test: Hepatoprotective activity in CDAHFD induced C57BL/6N mouse liver injury model assessed as decrease in LDL level at 200 mg/kg,po qd administration for 4 weeks; format: functional, organism-based
Mus musculus [5] = test: Antifibrotic activity in CDAHFD induced non-alcoholic steatohepatitis C57BL/6N mouse model assessed as downregulation of COL1A1 protein expression at 200 mg/kg,po qd administration for 4 weeks by Western blotting analysis; format: functional, organism-based
Mus musculus [6] = test: Antifibrotic activity in CDAHFD induced non-alcoholic steatohepatitis C57BL/6N mouse model assessed as downregulation of MMP2 mRNA expression at 200 mg/kg,po qd administration for 4 weeks by qRT-PCR analysis; format: functional, organism-based
[7] = Metabolic stability in CD-1 mouse liver microsomes assessed as microsomal intrinsic clearance at 1 micromol/L measured upto 60 mins in presence of NADPH by LC-MS/MS analysis; format: ADME, Microsome; details: dose 1 µmol/L, read-out: CLH
Mus musculus [8] = test: Antifibrotic activity in CDAHFD induced non-alcoholic steatohepatitis C57BL/6N mouse model assessed as downregulation of MMP2 protein expression at 200 mg/kg,po qd administration for 4 weeks by Western blotting analysis; format: functional, organism-based
Mus musculus [9] = test: Antifibrotic activity in CDAHFD induced non-alcoholic steatohepatitis C57BL/6N mouse model assessed as decrease in collagen area at 200 mg/kg,po qd administration for 4 weeks by Masson's trichrome staining based analysis; format: functional, organism-based
Mus musculus [10] = test: Hepatoprotective activity in CDAHFD induced C57BL/6N mouse liver injury model assessed as increase in glutathione peroxidase level at 200 mg/kg,po qd administration for 4 weeks; format: functional, organism-based
Mus musculus [11] = test: Hepatoprotective activity in CDAHFD induced C57BL/6N mouse liver injury model assessed as reduction in fatty droplets at 200 mg/kg,po qd administration for 4 weeks by Oil red-O staining based microscopic analysis; format: functional, organism-based
[12] = Half life in human liver microsomes at 1 micromol/L measured upto 60 mins in presence of NADPH by LC-MS/MS analysis; format: ADME, Microsome; details: dose 1 µmol/L
[13] = Cytotoxicity against human LX2 cells assessed as inhibition of cell growth; format: toxicity, cell-based, LX-2
[14] = Metabolic stability in human liver microsomes assessed as microsomal intrinsic clearance at 1 micromol/L measured upto 60 mins in presence of NADPH by LC-MS/MS analysis; format: ADME, Microsome; details: dose 1 µmol/L, read-out: CLH
[15] = Metabolic stability in Sprague-Dawley rat liver microsomes assessed as microsomal intrinsic clearance at 1 micromol/L measured upto 60 mins in presence of NADPH by LC-MS/MS analysis; format: ADME, Microsome; details: dose 1 µmol/L, read-out: CLH
THP-1 [16] = test: Anti-inflammatory activity in PMA differentiated human THP-1 cells assessed as downregulation of IL-1beta protein expression at 10 micromol/L incubated for 4 hrs followed by LPS and Nigericin addition for 3.5 hrs by Western blotting analysis; format: functional, cell-based; details: dose 10.0 µmol/L, time 7.5 hrs
Mus musculus [17] = test: Hepatoprotective activity in CDAHFD induced C57BL/6N mouse liver injury model assessed as decrease in ALT level at 200 mg/kg,po qd administration for 4 weeks; format: functional, organism-based
[18] = Acute toxicity in Kunming mouse assessed as effect on AST level at 250 to 1000 mg/kg,po administration; format: organism-based; details: in vivo, dose 250-1000 mg/kg
Mus musculus [19] = test: Antifibrotic activity in CDAHFD induced non-alcoholic steatohepatitis C57BL/6N mouse model assessed as downregulation of TIMP1 mRNA expression at 200 mg/kg,po qd administration for 4 weeks by qRT-PCR analysis; format: functional, organism-based
THP-1 [20] = test: Anti-inflammatory activity in PMA differentiated human THP-1 cells assessed as downregulation of caspase-1 protein expression at 5 micromol/L incubated for 4 hrs followed by LPS and Nigericin addition for 3.5 hrs by Western blotting analysis; format: functional, cell-based; details: dose 5.0 µmol/L, time 7.5 hrs
[21] = Acute toxicity in Kunming mouse assessed as effect on ALT level at 250 to 1000 mg/kg,po administration; format: organism-based; details: in vivo, dose 250-1000 mg/kg
Mus musculus [22] = test: Antifibrotic activity in CDAHFD induced non-alcoholic steatohepatitis C57BL/6N mouse model assessed as downregulation of TGF-beta1 protein expression at 200 mg/kg,po qd administration for 4 weeks by Western blotting analysis; format: functional, organism-based
Mus musculus [23] = test: Hepatoprotective activity in CDAHFD induced C57BL/6N mouse liver injury model assessed as decrease in total cholesterol level at 200 mg/kg,po qd administration for 4 weeks; format: functional, organism-based
Mus musculus [24] = test: Antifibrotic activity in CDAHFD induced non-alcoholic steatohepatitis C57BL/6N mouse model assessed as downregulation of TGF-beta1 mRNA expression at 200 mg/kg,po qd administration for 4 weeks by qRT-PCR analysis; format: functional, organism-based
THP-1 [25] = test: Anti-inflammatory activity in PMA differentiated human THP-1 cells assessed as downregulation of caspase-1 protein expression at 10 micromol/L incubated for 4 hrs followed by LPS and Nigericin addition for 3.5 hrs by Western blotting analysis; format: functional, cell-based; details: dose 10.0 µmol/L, time 7.5 hrs
Rattus norvegicus [26] = test: Antifibrotic activity in bile duct ligation induced Sprague-Dawley rat liver fibrosis model assessed as downregulation of COL1A1 mRNA expression at 200 mg/kg,po qd administration for 14 days by qRT-PCR analysis; format: functional, organism-based; details: time 14.0 day
Mus musculus [27] = test: Hepatoprotective activity in CDAHFD induced C57BL/6N mouse liver injury model assessed as decrease in total bilirubin level at 200 mg/kg,po qd administration for 4 weeks; format: functional, organism-based
Mus musculus [28] = test: Hepatoprotective activity in CDAHFD induced C57BL/6N mouse liver injury model assessed as decrease in ALP level at 200 mg/kg,po qd administration for 4 weeks; format: functional, organism-based
[29] = Acute toxicity in Kunming mouse assessed as effect on blood urea nitrogen level at 250 to 1000 mg/kg,po administration; format: organism-based; details: in vivo, dose 250-1000 mg/kg
Mus musculus [30] = test: Hepatoprotective activity in CDAHFD induced C57BL/6N mouse liver injury model assessed as decrease in LDH level at 200 mg/kg,po qd administration for 4 weeks; format: functional, organism-based
Rattus norvegicus [31] = test: Hepatoprotective activity in bile duct ligation induced Sprague-Dawley rat liver injury model assessed as decrease in ALP level at 200 mg/kg,po qd administration for 14 days; format: functional, organism-based; details: time 14.0 day
[32] = Metabolic stability in CD-1 mouse liver microsomes assessed as intrinsic clearance at 1 micromol/L measured upto 60 mins in presence of NADPH by LC-MS/MS analysis; format: ADME, Microsome; details: 1 h, 1 µM, dose 1 µmol/L

COc1cc2c(cc1OC)-c1cc3ccc(OC)c(OCc4cccc(C)c4)c3c[n+]1CC2.[Br-]
Activity (LX-2): Dose-Dependent Effect
Activity (Mus musculus [1]): Active
Activity (Mus musculus [2]): Active
Activity (Rattus norvegicus [3]): Active
Activity (Mus musculus [4]): Active
Activity (Mus musculus [5]): Active
Activity (Mus musculus [6]): Active
microsomal CLint at 1 µM [7]: 188 µL/min/mg
Activity (Mus musculus [8]): Active
Activity (Mus musculus [9]): Active
Activity (Mus musculus [10]): Active
Activity (Mus musculus [11]): Active
half-life at 1 µM [12]: 53.3 min
CC50 [13]: 70.4 µM
microsomal CLint at 1 µM [14]: 26 µL/min/mg
microsomal CLint at 1 µM [15]: 188 µL/min/mg
Activity (THP-1 [16]): Active
Activity (Mus musculus [17]): Active
Activity [18]: Non-Toxic
Activity (Mus musculus [19]): Active
Activity (THP-1 [20]): Active
Activity [21]: Non-Toxic
Activity (Mus musculus [22]): Active
Activity (Mus musculus [23]): inactive
Activity (Mus musculus [24]): Active
Activity (THP-1 [25]): Active
Activity (Rattus norvegicus [26]): Active
Activity (Mus musculus [27]): Active
Activity (Mus musculus [28]): Active
Activity [29]: Non-Toxic
Activity (Mus musculus [30]): Active
Activity (Rattus norvegicus [31]): Active
CLint,scaled [32]: 744 mL/min/kg
